Measurements from US20260271928A1, “CONTROL OF PESTS RESISTANT TO INSECTICIDES” (Syngenta Crop Protection Ag, priority 2023, published 2026).
Like-named read-outs stand apart in the source and are kept apart here.

Legend:
[1] = target: T1, vesicular acetylcholine transporter (VAChT) (Lucilia sericata, UniProt Z9IC98WFD0); test: [3H]-A1 radioligand binding and competitive displacement, Lucilia sericata head membrane
T1 sequence (Z9IC98WFD0 1-593): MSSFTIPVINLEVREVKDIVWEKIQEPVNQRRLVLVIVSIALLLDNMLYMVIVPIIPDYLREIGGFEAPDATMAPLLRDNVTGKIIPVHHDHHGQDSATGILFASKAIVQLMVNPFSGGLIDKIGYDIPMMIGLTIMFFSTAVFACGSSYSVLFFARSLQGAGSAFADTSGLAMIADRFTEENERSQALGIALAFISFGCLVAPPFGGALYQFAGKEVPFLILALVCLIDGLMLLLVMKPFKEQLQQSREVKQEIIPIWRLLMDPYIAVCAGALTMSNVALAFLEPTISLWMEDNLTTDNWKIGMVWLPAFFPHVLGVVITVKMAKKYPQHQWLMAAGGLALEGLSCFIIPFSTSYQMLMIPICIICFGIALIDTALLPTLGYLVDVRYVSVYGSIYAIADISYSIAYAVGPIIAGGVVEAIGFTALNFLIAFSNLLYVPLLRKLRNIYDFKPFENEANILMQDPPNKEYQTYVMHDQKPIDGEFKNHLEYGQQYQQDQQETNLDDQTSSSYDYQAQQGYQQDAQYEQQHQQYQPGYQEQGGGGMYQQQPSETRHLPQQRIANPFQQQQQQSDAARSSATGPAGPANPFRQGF
Description: Methods herein were generally adapted from this publication.
Binding of [^3H]-A1 was measured using Lucilia sericata head membrane suspended in 50 mM Tris HCL buffer (pH7.4) containing 120 mM NaCl, and 100 mM EDTA, at a protein concentration of 1 mg/ml for dispensing into 96 well plates to give 50 μg protein per well. [^3H]-A1 was added to plates as a 37 MBq/ml ethanol stock dissolved in 2.2 ml assay buffer to give an approximate final well concentration of 9 nM. Test compounds were incubated at 25° C. for 90 min with 9 nM [^3H]-A1 (or a range of concentrations for saturation analysis) at either 8 rates (where prepared manually) or 6 or 10 rates where prepared using robotics. The binding incubation was terminated by vacuum filtration through glass fibre filter mats (PerkinElmerFilterMat A, Seer Green, UK), pre-treated with 0.5% polyethyleneimine and mounted on a Tomtec cell harvester. The filters were then washed rapidly with ice-cold water, dried and bound radioactivity measured using an EG&GWallac betaplate scintillation counter after impregnating the filter with solid scintillant (PerkinElmer MeltiLex). Non specific binding was subtracted from the counts at each data point to give the specific binding. The amount of displacement was calculated as a % of the control and the IC50 calculated from a curve fitted using a single-exponential algorithm.
Data was fitted with a single-exponential model.
To identify the insecticidal target-protein for alkylysulfones we examined the ability of a range of ligands with identified target proteins to displace [^3H]-A1 from its site on Lucilia membranes (see Table X3).

[2] = test system: Resistant Plutella xylostella; test: Resistant Plutella xylostella (rPLU); format: in vivo; conditions: for resistance of the rPLU strain to the insecticide: collected 2013, Changhua, Taiwan
Description: (§1) Chinese cabbage plants were treated with the diluted test solutions in a spray chamber. After drying, the leaves were cut off and placed in petri dishes with wetted filter paper. One day after treatment, the leaves were infested with 10 Plutella xylostella larvae (L3). Samples were assessed 4 days after infestation for mortality and growth regulation.
Resistant Plutella xylostella (rPLU)
A number of target-sites mutations were identified in this strain which confer resistance to pyrethroids (L1014F, T929I), organophosphates and carbamates (mAChE: A298S and G324A), and organochlorines (rdl: A298S), and diamides (ryr: G4546E).

Resistant Myzus persicae = Resistant Myzus persicae (rMP); format: in vivo; conditions: field-collected 2009, Southern France
Description: Pepper plants were infested with an Myzus persicae population of mixed ages. One day after infestation the plants were treated with the diluted test solutions in a spray chamber. 5 days after treatment samples were assessed for mortality.

Resistant Bemisia tabaci = Resistant Bemisia tabaci (rBT); format: in vivo; conditions: biotype Q, field-collected 2000, Almeria, Spain
Description: Cotton leaf discs were placed upside down in petri dishes on water agar and treated with the diluted test solutions in a spray chamber. After drying, leaf discs were infested with 10 adult Bemisia tabaci. Dishes were covered with a fabric filter and sealed with a perforated plastic lid. 4 days after treatment samples were assessed for mortality.
Resistant Bemisia tabaci (rBT)
Biotype Q originally field-collected in 2000 from Almeria, Spain. […] The strain carried the mutation L925I in the voltage-gated sodium channel conferring resistance to pyrethroids. It also had higher expression of the p450 CYP6CM1 conferring metabolic resistance to neonicotinoids.

Plutella xylostella = Plutella xylostella (diamond back moth), larvae, feeding/contact (sPLU); format: in vivo; conditions: sensitive strain, L3 larvae on Chinese cabbage, assessed 4 days after infestation; 0 = BP80 >200 ppm
Description: as §1, with “Plutella xylostella (Diamond Back Moth), Larvae, Feeding/Contact (sPLU) Chinese” for “Chinese”

[3] = test system: Resistant Nilaparvata lugens; test: Resistant Nilaparvata lugens (rNIL); format: in vivo; conditions: collected 2005, Karnataka, India
Description: Rice plants were treated with the diluted test solutions in a spray chamber. After drying, plants were infested with ~20 Nilaparvata lugens nymphs (N5). 7 days after the treatment samples were assessed for mortality. The adults were then removed and 15 days after the treatment samples were assessed for effect on F1 generation.
Resistant Nilaparvata lugens (rNIL)
Originally collected from Hosa-Hally, Karnataka district, India in 2005.

[4] = Lucilia membranes, ligands with identified target proteins
[5] = Lucilia sericata head membrane, 9 nM [3H]-A1, read-out: IC50 Displacement Values of [3H]-A1
[6] = Lucilia membranes, ligands with identified target proteins, read-out: [3H]-A1 displacement IC50
[7] = Lucilia head membrane, 9 nM [3H]-A1, read-out: Affinity at the [3H]-A1 binding site, competitive displacement

## CCS(=O)(=O)c1cccnc1-c1nc2cc(S(=O)(=O)C(F)(F)F)ccc2o1 [B1]
[1]; read-out: Affinity at the [3H]-A1 binding site, competitive displacement, Lucilia head membrane, 9 nM [3H]-A1
  IC50: 2 nM

## Cc1ccc(/N=C/N(C)/C=N/c2ccc(C)cc2C)c(C)c1 [Amitraz]
[1]; [4]
  [3H]-A1 displacement IC50: Inactive or IC50>

## CCS(=O)(=O)c1ccc(-n2cncn2)nc1-c1nc2cc(C(F)(F)F)cnc2n1C [VAChT-16]
[1]; [5]
  IC50: 10 nM

## CC(C)(C)N(NC(=O)c1ccc(Cl)cc1)C(=O)c1ccccc1 [Halofenozide]
[1]; [6]
  IC50: > 30300 nM

## CNC(=O)c1cc(C#N)cc(C)c1NC(=O)c1cc(Br)nn1-c1ncccc1Cl [Cyantraniliprole]
[1]; [6]
  IC50: > 21200 nM

## CCS(=O)(=O)c1cc(C(F)(F)F)cnc1-c1nc2cc(C(F)(F)F)ncc2n1C [A2]
[1]; [7]
  IC50: 39 nM

## CCN(CC)c1nc(C)cc(OP(=S)(OC)OC)n1 [Pirimiphos-methyl]
[1]; [6]
  IC50: > 32800 nM

## O=C(c1ccnc(Cl)c1)N1CC2(CCN(C/C=C/c3ccc(Cl)cc3)CC2)c2cc(F)ccc21 [5-F-CASPP]
[1]; [6]
  IC50: 2.3 nM

## Cc1cc(C(F)(C(F)(F)F)C(F)(F)F)ccc1NC(=O)c1cccc(I)c1C(=O)NC(C)(C)CS(C)(=O)=O [flubendiamide]
[2]
  resistance of the rPLU strain to the insecticide: 300 fold

## Emamectin Benzoate
[1]; [6]
  IC50: 11300 nM

## CCS(=O)(=O)c1cc(C(F)(F)F)cnc1-c1nc2cc(C(F)(F)F)cnc2n1C [A3]
[1]; [7]
  IC50: 10 nM

## O=[N+]([O-])NC1=NCCN1Cc1ccc(Cl)nc1 [Imidacloprid]
[1]; [6]
  IC50: > 19800 nM

## CC1(C)[C@H](C(=O)O[C@H](C#N)c2cccc(Oc3ccccc3)c2)[C@@H]1/C=C(\Cl)C(F)(F)F (racemic) [Lambda-cyhalothrin]
Resistant Myzus persicae
  resistance of the rMP population to the insecticide: > 5000 fold
Resistant Bemisia tabaci
  resistance of the rBT population to the insecticide: 40 fold
[2]
  resistance of the rPLU strain to the insecticide: > 800 fold

## CCS(=O)(=O)c1cccnc1-c1nc2cc(S(=O)(=O)C(F)(F)F)ccc2o1 [VAChT-13]
[1]; [5]
  IC50: 2 nM

## CC[S@@](=N)(=O)c1cc(C2(C#N)CC2)cnc1-c1nc2cc(C(F)(F)F)ncc2n1C [VAChT-34]
[1]; [5]
  IC50: 40 nM

## CCOP(=S)(OCC)Oc1nc(Cl)c(Cl)cc1Cl [chlorpyrifos]
[2]
  resistance of the rPLU strain to the insecticide: 100 fold

## CC(C)C(C(=O)OC(C#N)c1cccc(Oc2ccccc2)c1)c1ccc(Cl)cc1 (centres unmarked) [Fenvalerate]
[1]; [6]
  IC50: > 23900 nM

## CCS(=N)(=O)c1cc(C2(C#N)CC2)cnc1-c1nc2cc(C(F)(F)F)nnc2n1C (centres unmarked) [VAChT-35]
[1]; [5]
  IC50: 79 nM

## CCS(=O)(=O)c1c(N2Cc3ncc(C(F)(F)F)cc3C2=O)nc(-c2ccc(C3(C#N)CC3)cc2)n1C [P77, 1-[4-[5-ethyl-sulfonyl-1-methyl-4-[5-oxo-3-(trifluoromethyl)-7H-pyrrolo[3,4-b]pyridin-6-yl]imidazol-2-yl]phenyl]cyclopro-panecarbonitrile]
Plutella xylostella
  pBP80 s-PLU: 5.8
[2]; resistant strain, L3 larvae on Chinese cabbage, assessed 4 days after infestation, 0 = BP80 >200 ppm
  pBP80 r-PLU: 5.8

## CCS(=N)(=O)c1cc(C(F)(F)F)cnc1-c1nc2cc(C(F)(F)F)cnc2n1C (centres unmarked) [VAChT-1]
[1]; [5]
  IC50: 100 nM

## CN/C(=N/CC1CCOC1)N[N+](=O)[O-] (centres unmarked) [Dinotofuran]
[1]; read-out: [3H]-A1 displacement IC50
  IC50: > 49500 nM

## CN1COCN(Cc2cnc(Cl)s2)/C1=N\[N+](=O)[O-] [Thiamethoxam]
[3]
  resistance of the rNIL strain to the insecticide: 200 fold

## abamectin
[2]
  resistance of the rPLU strain to the insecticide: > 200 fold

## CCc1ccc(C(=O)NN(C(=O)c2cc(C)cc(C)c2)C(C)(C)C)cc1 [Tebufenozide]
[1]; [6]
  IC50: > 28400 nM

## CCS(=O)(=O)c1cc(C2(C#N)CC2)cnc1-c1nc2cc(C(F)(F)F)cnc2n1C [VAChT-7]
[1]; [5]
  IC50: 8 nM

## Spinosad
[1]; [6]
  IC50: > 13700 nM

## COC(=O)N(C(=O)N1CO[C@@]2(C(=O)OC)Cc3cc(Cl)ccc3C2=N1)c1ccc(OC(F)(F)F)cc1 [Indoxacarb]
[1]; [6]
  IC50: > 19000 nM

## CNC(=O)O/N=C/C(C)(C)SC [Aldicarb]
[1]; [6]
  IC50: > 52600 nM

## COC(=O)C12Cc3cc(Cl)ccc3C1=NN(C(=O)Nc1ccc(OC(F)(F)F)cc1)CO2 (centres unmarked) [DCJW]
[1]; [6]
  IC50: > 21300 nM

## CN/C(=N\[N+](=O)[O-])NCc1cnc(Cl)s1 [clothianidin]
[3]
  resistance of the rNIL strain to the insecticide: 200 fold

## CC[S@](=N)(=O)c1cc(OC(C)(C)C#N)cnc1-c1nc2cc(C(F)(F)F)cnc2n1C [VAChT-27]
[1]; [5]
  IC50: 25 nM

## CC(C)=CC1C(C(=O)OCN2C(=O)C3=C(CCCC3)C2=O)C1(C)C (centres unmarked) [Tetramethrin]
[1]; [6]
  IC50: 17400 nM

## CCN(Cc1ccc(Cl)nc1)/C(=C/[N+](=O)[O-])NC [nitenpyram]
[3]
  resistance of the rNIL strain to the insecticide: 30 fold

## Cc1cc(Cl)ccc1N=CN(C)C [Chlordimeform]
[1]; [4]
  [3H]-A1 displacement IC50: Inactive or IC50>

## ClC1=C(Cl)[C@]2(Cl)[C@@H]3[C@@H]4C[C@@H]([C@H]5O[C@@H]45)[C@@H]3[C@@]1(Cl)C2(Cl)Cl [Dieldrin]
[1]; [6]
  IC50: > 26500 nM

## N#Cc1nn(-c2c(Cl)cc(C(F)(F)F)cc2Cl)c(N)c1[S+]([O-])C(F)(F)F (centres unmarked) [Fipronil]
[1]; [6]
  IC50: > 22900 nM

## CCS(=O)(=O)c1c(-c2nc3cc(C(F)(F)F)cnc3n2C)nc2ccc(C(F)(F)F)cn12 [VAChT-19]
[1]; [5]
  IC50: 2 nM

## ClC1=C(Cl)C2(Cl)C3C4CC(C5OC45)C3C1(Cl)C2(Cl)Cl (centres unmarked) [Endrin]
[1]; [6]
  IC50: > 26500 nM

## COC1CCC2(CC1)NC(=O)C(c1cc(C)ccc1C)=C2O (centres unmarked) [Spirotetramat enol]
[1]; [6]
  IC50: > 33200 nM

## CCS(=O)(=O)c1cc(C(F)(F)F)cnc1-c1nnc(-c2cc(C(F)(F)F)ccn2)n1C [C1]
[1]; [7]
  IC50: 6.3 nM

## CNC(=O)c1cc(Cl)cc(C)c1NC(=O)c1cc(Br)nn1-c1ncccc1Cl [Chlorantraniliprole]
[1]; [6]
  IC50: > 20800 nM

## Nc1cccc2c1CC(N1CCC(c3ccccc3)CC1)C(O)C2 (centres unmarked) [Aminobenzovesamicol]
[1]; [6]
  IC50: 17.6 nM

## CCS(=O)(=O)c1cc(C2(C#N)CC2)cnc1-c1nc2cc3c(cc2n1C)OC(F)(F)O3 [VAChT-20]
[1]; [5]
  IC50: 4 nM

## CCCCCC[C@H]1C(=O)O[C@H](C)[C@H](NC(=O)c2cccc(NC=O)c2O)C(=O)O[C@@H](C)[C@@H]1OC(=O)CC(C)C [Antimycin A1]
[1]; [6]
  IC50: > 18200 nM
